In patent US12102063B2 (SYNEXIS LLC, priority 2017, dated 2024):
“And” between values parts separate entries of the source, which are not always exact repeats. Identical values can stand only once. Like-named read-outs stand apart in the source and are kept apart here.

Key:
[1] = system: bacteria on commercial eggs
Experimental: (§1) For sampling, individual eggs are placed in Whirl-Pak bags containing 10 milliliters (ml) of tryptic soy broth and manually rubbed in bag for 1 minute each. The washed eggs are discarded. One (1) ml from each sample is transferred to a deep well plate in triplicate and 10 fold serial dilutions performed with tryptic soy broth to 10−^11 dilution. The deep well plates are incubated for 24 hours at 37° C. After incubation, 5 microliters (5 μl) of each well is stamped onto a 96-well plate containing either tryptic soy agar (TSA) or MacConkey (Macx) agar. TSA agar is a non-selective, general purpose media. Macx agar is a selective, differential culture media for Gram-negative enteric bacilli. The agar plates are incubated 24 hours at 37° C. and then scored for bacterial growth.
A similar experiment is performed under egg cooler conditions. […] In this experiment, 300 commercial eggs are placed in the cooler and twenty (20) eggs are sampled, four times over five (5) days at 0 hours, 24 hours, 72 hours, and 120 hours as described above.

bacteria = conditions: end of test period (30 days), three locations
Experimental: In addition, bacterial contamination in the egg room is assessed by placing blood agar plates at three locations in the room (East, North, and West) at 0, 7, and 30 days, and bacterial growth is assessed after 24 hours.

[2] = system: C. difficile (endospores) ATCC 43598
broilers = system: broilers
From the text: The chicks hatched according to the methods of Examples 2 and 3 are shipped to a broiler facility and raised to maturity. No additional changes to grow-out methods are made. A total of about 4 million eggs are set per month and the saleable chicks are sent to the grow-out facility. […] The wholesale price of a broiler is currently estimated at $0.85 per pound. […] See the nationalchickencouncil.org available on the web.

[3] = system: S. aureus ATCC 33592 (MRSA)
Experimental: 24 and 48 hour test cultures of S. aureus, as well as all A. brasiliensis and C. difficile are prepared with 0.1% Triton X-100. A 6 hour test culture of S. aureus is prepared with 5.0% Petal Bovine Serum and no Triton. Carriers (slides) are inoculated, in duplicate per test microorganism per condition, at a target concentration of 1×10^6 CPU/Carrier. Inoculated carriers are allowed to dry at ambient temperatures, and are then placed in respective conditions to endure contact times. Carriers for S. aureus endured contact times of 6, 24, and 48 hours. Carriers for A. brasiliensis endured contact times of 12, 24, and 48 hours. […] After respective contact times, carriers are harvested in 10.0 mL of D/E Broth, vortex mixed, diluted, and plated on the appropriate growth media for each microorganism. Environmental conditions are monitored using the Drager Rohrchen, and Drager Polytron methods described in Example 1. (Note: The limit of detection for this assay is 5.0 CPU. Samples with no detectable colonies are listed as <5.00E+OO in the table).

E. coli K12 = conditions: for Log10 reduction / Log10 reduction vs. Control: DHP (+)
Aspergillus fumigatus = conditions: hatchery after DHP treatment
Influenza A (H1N1) = system: Influenza A (H1N1)
Experimental: Glass slides (1″×3″) are ethanol-sanitized and autoclaved prior to testing. The slides (carriers) are placed into sterile plastic petri dishes until use. Aliquots (0.010 ml) of diluted stock Influenza A (H1N1) are aseptically spread over a 1″×1″ square area of the carrier slide to prepare a virus film.
Virus Control carriers are placed into an adjacent modular room with the lids removed. One additional glass slide (with no virus film) is also placed into each testing chamber to perform cytotoxicity and neutralization validation controls. Upon closure of the respective study contact times (T=60 min and T=120 min), duplicate carriers are removed from each testing chamber. Duplicate carriers are also removed from the control modular room at each time point. Duplicate time zero carriers are harvested and enumerated promptly by eluting the films with 2 ml of influenza Infection Medium. Serial dilutions (1:10) are performed and dilutions 10−^1 to 10−^5 are plated in quadruplicate onto Madin-Darby Canine Kidney (MDCK) cell monolayers prepared to suitable confluency. Cell culture assay trays are incubated at 35° C. on an orbital rotator (60 rotations/minute) for 60 minutes to facilitate viral-host adsorption. Trays are removed from incubation, and Influenza infection Media is pipetted into each well (−1.0 ml). The trays are incubated for 7 days. The assay trays are observed regularly for the presence of cytotoxicity, viral cytopathic effects, and contamination. At the end of 7 days, plates are scored and the Spearman-Karber Method is used to compute viral titers and levels of cytotoxicity.

[4] = system: bacteria on commercial hatching eggs; conditions: DHP about 0.1 ppm, P=0.05
Experimental: As a control, sixty (60) commercial eggs are placed into a biosafety cabinet with the window closed. […] Sixty (60) commercial hatching eggs (test eggs) are placed in the room and both the control and test eggs are sampled, 10 eggs each, four times over the course of five (5) days at 0 hours, 24 hours, 72 hours, and 120 hours.
as §1
Bacterial growth is scored using a Most Probable Number (MPN) calculation.

chicks = system: chicks
Experimental: Hatching eggs are obtained from a breeder farm and the eggs are subjected to standard egg cleaning and preparation procedures. Hatched chicks are collected and prepared according to standard procedures (separation of eggshells and unhatched eggs, counted, etc.). Chicks are graded according to established methods. See van de Ven et al., “Significance of chick quality score in broiler production,” Animal 6(10):1677-1683; Boerjan, “Programs for single stage incubation and chick quality,” Avian Poultry Biology Reviews 13:237-238 (2002); Tona et al, “Effects of egg storage time on spread of hatch, chick quality and chick juvenile growth,” Poultry Science 82:736-741 (2003).
As indicated, certain studies were performed at Western Hatchery in Abbotsford, British Columbia, Canada (“Western”), under the supervision of the inventors and assignee. Approximately 4 million eggs per month are processed through the hatchery.
The egg room is contiguous to the loading and receiving area of the facility and is exposed to the outside during deliveries for up to 2 to 3 hours daily. […] In addition to the incoming eggs, the egg room includes excess shipping boxes and pallets.
In June 2016, the egg room and facilities are modified to add a vestibule to the loading dock with plastic curtains and upgrading the HVAC system to provide a third supply duct. […] The use of the egg room is further modified to remove unnecessary equipment including, but not limited to, pallets, cardboard boxes, and crates.
Setter incubators are set to industry standard conditions: temperature between 37° C. and 38° C. and relative humidity between 40% and 70%.
FIG. 6 presents the percent hatching of first quality chicks.

[5] = second contact time (48 hours), Hood (Treated)
[6] = second contact time (48 hours), Room (Treated)
[7] = Modular Room, 120 minutes contact

## OO [DHP, dry hydrogen peroxide]
[1]; 72 hours compared to 0 hours, p=0.001
  growth on Mac, treated group: significantly less growth
[1]; 120 hours compared to 0 hours, p=0.0001
  growth on Mac, treated group: significantly more growth
[1]; 120 hours compared to 0 hours, p=0.05
  growth on Mac, treated group: significantly less growth
[1]; egg cooler, 0-120 hours
  Mac growth with treatment: low throughout
  TSA growth with treatment: static until 120 hours
bacteria
  number of bacterial colonies on the blood agar plates, total: about 30
[2]; 24 Hours, Hood (Treated)
  Average CFU/Carrier: 2.75E+06 CFU/Carrier
  Log Reduction compared to Control: None
  Percent Reduction compared to Control: None
[2]; 24 Hours, Room (Treated)
  Average CFU/Carrier: 1.53E+06 CFU/Carrier
  Log Reduction compared to Control: 0.07 Log
  Percent Reduction compared to Control: 13.96%
[2]; 72 Hours, Hood (Treated)
  Average CFU/Carrier: 1.80E+06 CFU/Carrier
  Log Reduction compared to Control: 0.31 Log
  Percent Reduction compared to Control: 51.02%
[2]; 72 Hours, Room (Treated)
  Average CFU/Carrier: 3.35E+06 CFU/Carrier
  Log Reduction compared to Control: 0.04 Log
  Percent Reduction compared to Control: 8.84%
[2]; [5]
  Average CFU/Carrier: 3.10E+06 CFU/Carrier
  Log Reduction compared to Control: 0.24 Log
  Percent Reduction compared to Control: 42.06%
[2]; [6]
  Average CFU/Carrier: 3.53E+06 CFU/Carrier
  Log Reduction compared to Control: 0.18 Log
  Percent Reduction compared to Control: 34.11%
broilers; After DHP, grow-out facility
  Mortality Rate: 2.2%
broilers; After DHP, per 4,000,000 eggs set
  Net increase(# Chicks): 62,000
broilers; After DHP, per month
  Broilers raised: 3,161,678
broilers; chicks from DHP treated eggs
  reduction of mortality at the grow-out facility: about 7.8%
[3]; 6 Hours, Hood (Treated)
  % Reduction compared: 95.150%
  Log Reduction compared to: 1.31 Log
[3]; 6 Hours, Room (Treated)
  % Reduction compared: 83.053%
  Log Reduction compared to: 0.77 Log
[3]; 24 Hours, Hood (Treated)
  % Reduction compared: >66.667%
  Log Reduction compared to: >0.48 Log
  Replicate CFU/Carrier: <5.00E+00 CFU/Carrier
[3]; 24 Hours, Room (Treated)
  % Reduction compared: >88.889%
  Average CFU/Carrier: <5.00E+00 CFU/Carrier
  Log Reduction compared to: >0.95 Log
  Replicate CFU/Carrier: 5.00E+00 CFU/Carrier and <5.00E+00 CFU/Carrier
[3]; 48 Hours, Hood (Treated)
  % Reduction compared: >78.947%
  Log Reduction compared to: >0.68 Log
  Replicate CFU/Carrier: <5.00E+00 CFU/Carrier
[3]; 48 Hours, Room (Treated)
  % Reduction compared: >89.474%
  Average CFU/Carrier: <5.00E+00 CFU/Carrier
  Log Reduction compared to: >0.98 Log
  Replicate CFU/Carrier: <5.00E+00 CFU/Carrier
E. coli K12; 1 hour
  Log10 reduction: >4.78 Log10
  Log10 reduction vs. Control: 2.82 Log10
E. coli K12; 2 hours
  Log10 reduction: >4.79 Log10
  Log10 reduction vs. Control: 1.71 Log10
E. coli K12; within one hour
  elimination of aerosolized bacteria from the DHP treated space: essentially eliminated
Aspergillus fumigatus
  Post: 1
Influenza A (H1N1); Hood Chamber, 60 minutes contact
  Log10: >=2.62 Log10
Influenza A (H1N1); Hood Chamber, 120 minutes contact
  Log10: >=1.87 Log10
Influenza A (H1N1); Modular Room, 60 minutes contact
  % Reduction: 87%
Influenza A (H1N1); Modular Room, 60 minutes contact, DHP 0.6-1.0 ppm
  Log10: 0.87 Log10
Influenza A (H1N1); [7]
  % Reduction: 76%
  Log10: 0.62 Log10
[4]; after 72 hours
  number of bacteria growing on TSA: significantly reduced
[4]; after 120 hours
  number of bacteria growing on TSA: significantly reduced
chicks; after installation of DHP to setter incubator environment, about 0.5 ppm in room
  percent hatching of first quality chicks: 83%
chicks; average of months
  After Modification Cull Rate(%), Average: 1.65%
  After Modification First Quality Chick (% Hatched), Average: 80.82%
chicks; egg room DHP
  additional birds available for shipping to the grow-out facility: about 4,000 birds
  cull rate lower than before DHP modification: at least 1%
